Tested on: 186277-243-T-J2-PDC complex spheroid viability
Experiment: Anticancer human tumor 186277-243-T-J2-PDC patient-derived colon adenocarcinoma cell line growth inhibition [POLQ]
Conditions: for IC50: curve of first compound; for viability, T/C: stronger effect = lower value
Method in brief: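 Three-cell-type spheroids modelling solid tumor plus stroma served as the readout system; POL inhibitors were tested individually and in combination, concentration ranges set by clinical Cmax where known.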
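Note: spheroids exposed to compounds for seven days.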
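Throughout, for viability, T/C: 100% = DMSO vehicle control viability.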

`CC(=O)O[C@H]1C(=O)[C@@]2(C)[C@H]([C@H](OC(=O)c3ccccc3)[C@]3(O)C[C@H](OC(=O)[C@H](O)[C@@H](NC(=O)c4ccccc4)c4ccccc4)C(C)=C1C3(C)C)[C@]1(OC(C)=O)CO[C@@H]1C[C@@H]2O` + Cc1cccc(N(C)C(=O)C2C(O)CCN2c2nc(C)cc(C(F)(F)F)c2C#N)c1 was tested, and the IC50 (second compound 0.0316 µM) was under 9.49 nM, the IC50 (second compound 0.1 µM) was under 9.49 nM and the IC50 (second compound 0.316 µM) was under 9.49 nM. It also gave an IC50 (second compound 1 µM) of under 9.49 nM, an IC50 (second compound 3.16 µM) of under 9.49 nM and an IC50 (second compound 10 µM) of under 9.49 nM. It also gave a viability, T/C (second compound 0.0316 µM, first compound 0.00949 µM) of 37.5%, a viability, T/C (second compound 0.0316 µM, first compound 0.03 µM) of 10.3% and a viability, T/C (second compound 0.0316 µM, first compound 0.0949 µM) of 7.26%. It also gave a viability, T/C (second compound 0.0316 µM, first compound 0.3 µM) of 5.79%, a viability, T/C (second compound 0.0316 µM, first compound 0.949 µM) of 5.96% and a viability, T/C (second compound 0.0316 µM, first compound 3 µM) of 6.11%. It also gave a viability, T/C (second compound 0.1 µM, first compound 0.00949 µM) of 35%, a viability, T/C (second compound 0.1 µM, first compound 0.03 µM) of 10.9% and a viability, T/C (second compound 0.1 µM, first compound 0.0949 µM) of 7.5%. For the same molecule, the viability, T/C (second compound 0.1 µM, first compound 0.3 µM) was 5.9%, the viability, T/C (second compound 0.1 µM, first compound 0.949 µM) was 5.52% and the viability, T/C (second compound 0.1 µM, first compound 3 µM) was 6.96%. It also gave a viability, T/C (second compound 0.316 µM, first compound 0.00949 µM) of 45.3%, a viability, T/C (second compound 0.316 µM, first compound 0.03 µM) of 10.2% and a viability, T/C (second compound 0.316 µM, first compound 0.0949 µM) of 6.71%. The viability, T/C (second compound 0.316 µM, first compound 0.3 µM) was 5.81%, the viability, T/C (second compound 0.316 µM, first compound 0.949 µM) was 5.53% and the viability, T/C (second compound 0.316 µM, first compound 3 µM) was 5.53%. It also gave a viability, T/C (second compound 1 µM, first compound 0.00949 µM) of 34.8%, a viability, T/C (second compound 1 µM, first compound 0.03 µM) of 12.4% and a viability, T/C (second compound 1 µM, first compound 0.0949 µM) of 6.22%. It also gave a viability, T/C (second compound 1 µM, first compound 0.3 µM) of 5.71%, a viability, T/C (second compound 1 µM, first compound 0.949 µM) of 5.47% and a viability, T/C (second compound 1 µM, first compound 3 µM) of 5.47%. It also gave a viability, T/C (second compound 3.16 µM, first compound 0.00949 µM) of 27.2%, a viability, T/C (second compound 3.16 µM, first compound 0.03 µM) of 10.5% and a viability, T/C (second compound 3.16 µM, first compound 0.0949 µM) of 6.13%. For the same molecule, the viability, T/C (second compound 3.16 µM, first compound 0.3 µM) was 5.47%, the viability, T/C (second compound 3.16 µM, first compound 0.949 µM) was 5.6% and the viability, T/C (second compound 3.16 µM, first compound 3 µM) was 5.16%. It also gave a viability, T/C (second compound 10 µM, first compound 0.00949 µM) of 20.3%, a viability, T/C (second compound 10 µM, first compound 0.03 µM) of 6.86% and a viability, T/C (second compound 10 µM, first compound 0.0949 µM) of 5.75%. The viability, T/C (second compound 10 µM, first compound 0.3 µM) was 5.46%, the viability, T/C (second compound 10 µM, first compound 0.949 µM) was 5.93% and the viability, T/C (second compound 10 µM, first compound 3 µM) was 6.1%.
